The target in the assay is recombinant DYRK1A kinase (Homo sapiens (Human), UniProt Q13627). In words: DYRK1A kinase assay (Ser/Thr 18 peptide Z-lyte FRET assay). In kind it is biochemical. The following applies: recombinant DYRK1A 0.25 µg/mL, ATP 15 µM, Ser/Thr peptide 18 4 µM, one hour at room temperature; table head prints EC50, method says IC50. The method, then: Representative compounds were screened using the assay procedure for DYRK1A kinase activity as described below.
Each compound was dissolved in DMSO as a 10 mM stock and used to prepare compound source plates. Serial dilution (1:3, 11-point dose-response curves from 10 µM to 0.00016 µM) and compound transfer was performed using the ECHO 550 (Labcyte, Sunnyvale, CA) into 1536-well black-walled round bottom plates (Corning).
The DYRK1A kinase assay was run using the Ser/Thr 18 peptide Z-lyte assay kit according to manufacturer’s instructions (Life Technologies- a Division of Thermo-Fisher). This is a non-radioactive assay using fluorescence resonance energy transfer (FRET) between coumarin and fluorescein to detect kinase activity which is represented as a ratio of coumarin emission/fluorescein emission.
Briefly, recombinant DYRK1A kinase, ATP and Ser/Thr peptide 18 were prepared in 1X Kinase buffer to final concentrations of 0.25 µg/mL, 15 µM, and 4 µM respectively. The mixture was allowed to incubate with the representative compounds for one hour at room temperature. All reactions were performed in duplicate. Unphosphorylated (“0% Control”) and phosphorylated (“100% control”) forms of Ser/Thr 18 served as control reactions. Additionally, an 11-point dose-response curve of Staurosporine (1uM top) was run to serve as a positive compound control.
After incubation, Development Reagent A was diluted in Development Buffer then added to the reaction and allowed to further incubate for one hour at room temperature. The plate was read at Ex 400 Em 455 to detect the coumarin signal and Ex 400 Em 520 to measure the signal (EnVision Multilabel Plate Reader, PerkinElmer).
The Emission ratio (Em) was calculated as a ratio of the coumarin (C) emission signal (at 445 nm)/Fluorescein (F) emission signal (at 520 nm). The percent phosphorylation was then calculated using the following formula: [1 — ((Em ratio X F100%)—C100%)/ ((C0%—C100%) + (Em ratio X (F100% - F0%)))]. Dose-response curves were generated, and inhibitory concentration (IC50) values were calculated using non-linear regression curve fit in the Dotmatics’ Studies Software (Bishops Stortford, UK).

SMILES strings stand for the structures.

Regarding `Cc1nc2ccc(-c3ccn4nc(NC5CCN(C(=O)C6CC6)CC5)ncc34)nc2n1CC(F)F` [Compound 1860], the EC50 (commonly the concentration needed to bring the measured effect to its halfway point) turned out to be 5 nM.

`Cc1nc2ncc(-c3ccn4nc(N[C@@H]5CCN(C)C[C@H]5F)ncc34)cc2n1CC(F)F` [Compound 1885, 5-(1-(2,2-Difluoroethyl)-2-methyl-1H-imidazo[4,5-b]pyridin-6-yl)-N-((3R,4R)-3-fluoro-1-methylpiperidin-4-yl)pyrrolo[2,1-f][1,2,4]triazin-2-amine]: the EC50 came to 6 nM.

For `Cc1nc2ncc(-c3ccn4nc(N[C@H]5CC[C@@H](OC(F)F)CC5)ncc34)cc2n1CC(F)F` [Compound 687], the EC50 was 2 nM.

With `Cc1nc2ccc(-c3ccn4nc(N[C@H]5CN(C6COC6)C[C@H]5F)ncc34)nc2n1CC(F)F` [Compound 1944, 5-(3-(2,2-difluoroethyl)-2-methyl-3H-imidazo[4,5-b]pyridin-5-yl)-N-((3S,4R)-4-fluoro-1-(oxetan-3-yl)pyrrolidin-3-yl)pyrrolo[2,1-f][1,2,4]triazin-2-amine], the EC50 was determined as 13 nM.

In the case of `CC1(C)CC(Nc2ncc3c(-c4cnc5nccn5c4)ccn3n2)C1` [Compound 237, N-(3,3-Dimethylcyclobutyl)-5-(imidazo[1,2-a]pyrimidin-6-yl)pyrrolo[2,1-f] [1,2,4]triazin-2-amine], the EC50 is 3 nM.

Turning to `FC1(F)CCC(Nc2ncc3c(-c4ccc5nccnc5c4)ccn3n2)CC1` [Compound 1392, N-(4,4-Difluorocyclohexyl)-5-(quinoxalin-6-yl)pyrrolo[2,1-f][1,2,4]triazin-2-amine], the EC50 worked out at 529 nM.

Turning to `Cc1nc2ncc(-c3ccn4nc(N[C@H]5C[C@@](C)(O)C5)ncc34)cc2n1CC(F)F` [Compound 1813, cis-3-((5-(1-(2,2-Difluoroethyl)-2-methyl-1H-imidazo [4,5-b]pyridin-6-yl)pyrrolo[2,1-f] [1,2,4]triazin-2-yl)amino)-1-methylcyclobutan-1-ol], the concentration giving a half-maximal response (EC50) was determined as 4 nM.

As to `Cc1nc2ncc(-c3ccn4nc(N[C@H]5CC[C@](C)(O)CC5)ncc34)cc2n1CC(F)F` [Compound 1879, trans-4-((5-(1-(2,2-Difluoroethyl)-2-methyl-1H-imidazo[4,5-b]pyridin-6-yl)pyrrolo[2,1-f][1,2,4]triazin-2-yl)amino)-1-methylcyclohexan-1-ol], the EC50 turned out to be 2 nM.

As to `COCCO[C@H]1C[C@@H](Nc2ncc3c(-c4cnc5ncccc5c4)ccn3n2)C1` [Compound 1522, N-(cis-3-(2-Methoxyethoxy)cyclobutyl)-5-(1,8-naphthyridin-3-yl)pyrrolo [2,1-f][1,2,4]triazin-2-amine], the EC50 is 3 nM.

As to `[2H]C([2H])([2H])O[C@H]1CC[C@@H](Nc2ncc3c(-c4cnc5nc(C)n(CC(F)F)c5c4)ccn3n2)CC1` [Compound 1876], the EC50 came out at 2 nM.

`C[C@H](Nc1ncc2c(-c3cnc4nccn4c3)ccn2n1)C1CC1` [Compound 230, (S)-N-(1-Cyclopropylethyl)-5-(imidazo[1,2-a]pyrimidin-6-yl)pyrrolo[2,1-f] [1,2,4]triazin-2-amine]: the EC50 came out at 58 nM.

Take `COC[C@H]1C[C@H](Nc2ncc3c(-c4ccc5nccnc5c4)ccn3n2)C1` [Compound 1377, N-(trans-3-(Methoxymethyl)cyclobutyl)-5-(quinoxalin-6-yl)pyrrolo[2,1-f] [1,2,4]triazin-2-amine]: the EC50 stood at 8 nM.

Consider `Cc1cnc2ncc(-c3ccn4nc(NCC(C)(C)F)ncc34)cn12` [Compound 358, N-(2-Fluoro-2-methylpropyl)-5-(3-methylimidazo[1,2-a]pyrimidin-6-yl) pyrrolo[2,1-f] [1,2,4]triazin-2-amine], for which the EC50 stood at 25 nM.

Regarding `Cc1cnc2ncc(-c3ccn4nc(NC5CCC(F)(F)CC5)ncc34)cn12` [Compound 398, N-(4,4-Difluorocyclohexyl)-5-(3-methylimidazo[1,2-a]pyrimidin-6-yl) pyrrolo[2,1-f] [1,2,4]triazin-2-amine], the EC50 is 12 nM.

Take `CC(=O)N[C@H]1CC[C@H](Nc2ncc3c(-c4ccc5nc(C)n(CC(F)F)c5n4)ccn3n2)CC1` [Compound 1844, N-(trans-4-((5-(3-(2,2-Difluoroethyl)-2-methyl-3H-imidazo[4,5-b]pyridin-5-yl)pyrrolo[2,1-f][1,2,4]triazin-2-yl)amino)cyclohexyl)acetamide]: the EC50 was found to be 3 nM.

For the molecule `Cc1nc2ncc(-c3ccn4nc(NC5CCC(F)(F)CC5)ncc34)cc2n1Cc1nnc([C@@H](C)F)o1` [Compound 1915, (R)-N-(4,4-Difluorocyclohexyl)-5-(1-((5-(1-fluoroethyl)-1,3,4-oxadiazol-2-yl)methyl)-2-methyl-1H-imidazo[4,5-b]pyridin-6-yl)pyrrolo[2,1-f][1,2,4]triazin-2-amine], the EC50 came to 9 nM.

With `COCCO[C@H]1CC[C@H](Nc2ncc3c(-c4cnc5ncccc5c4)ccn3n2)CC1` [Compound 1544, N-(trans-4-(2-Methoxyethoxy)cyclohexyl)-5-(1,8-naphthyridin-3-yl)pyrrolo [2,1-f][1,2,4]triazin-2-amine], the EC50 was found to be 5 nM.

Take `Cc1nc2ncc(-c3ccn4nc(N[C@H]5CC[C@@H](OCC(F)F)CC5)ncc34)cc2n1CC(F)F` [Compound 1877]: the EC50 was determined as 2 nM.

With `Cc1nc2ccc(-c3ccn4nc(N[C@@H]5CCCOC5)ncc34)nc2n1CC(F)F` [Compound 1863, (R)-5-(3-(2,2-Difluoroethyl)-2-methyl-3H-imidazo[4,5-b]pyridin-5-yl)-N-(tetrahydro-2H-pyran-3-yl)pyrrolo[2,1-f][1,2,4]triazin-2-amine], the EC50 is 8 nM.

For `Cc1nc2ccc(-c3ccn4nc(N[C@H]5CC[C@](C)(O)CC5)ncc34)nc2n1CC(F)F` [Compound 1840, trans-4-((5-(3-(2,2-Difluoroethyl)-2-methyl-3H-imidazo[4,5-b]pyridin-5-yl)pyrrolo[2,1-f][1,2,4]triazin-2-yl)amino)-1-methylcyclohexan-1-ol], the EC50 was determined as 3 nM.

On to `COc1ncnc2ccc(-c3ccn4nc(NCC(C)(C)F)ncc34)cc12` [Compound 1423, N-(2-Fluoro-2-methylpropyl)-5-(4-methoxyquinazolin-6-yl)pyrrolo[2,1-f] [1,2,4]triazin-2-amine], for which the EC50 was 149 nM.

Consider `CC1(CNc2ncc3c(-c4ccc5nccn5c4)ccn3n2)CC1` [Compound 12, 5-(Imidazo[1,2-a]pyridin-6-yl)-N-((1-methylcyclopropyl)methyl)pyrrolo[2,1-f][1,2,4]triazin-2-amine], for which the EC50 stood at 45 nM.

As to `CO[C@H]1CC[C@H](Nc2ncc3c(-c4cnc5nccn5c4)ccn3n2)CC1` [Compound 260, 5-(Imidazo[1,2-a]pyrimidin-6-yl)-N-(trans-4-methoxycyclohexyl)pyrrolo [2,1-f] [1,2,4]triazin-2-amine], the EC50 was 9 nM.

As for `CC1(CNc2ncc3c(-c4cnc5nccn5c4)ccn3n2)CC1` [Compound 225, 5-(Imidazo[1,2-a]pyrimidin-6-yl)-N-((1-methylcyclopropyl)methyl)pyrrolo [2,1-f][1,2,4]triazin-2-amine], the EC50 turned out to be 11 nM.

Consider `CC(=O)N[C@H]1CC[C@@H](Nc2ncc3c(-c4ccc5nc(C)n(CC(F)F)c5n4)ccn3n2)CC1` [Compound 1898, N-(cis-4-((5-(3-(2,2-Difluoroethyl)-2-methyl-3H-imidazo [4,5-b]pyridin-5-yl)pyrrolo[2,1-f] [1,2,4]triazin-2-yl)amino)cyclohexyl)acetamide], for which the EC50 stood at 3 nM.

Take `C[C@@H](Nc1ncc2c(-c3cnc4nccn4c3)ccn2n1)C(F)(F)F` [Compound 219, (R)-5-(Imidazo[1,2-a]pyrimidin-6-yl)-N-(1,1,1-trifluoropropan-2-yl)pyrrolo [2,1-f][1,2,4]triazin-2-amine]: the EC50 was determined as 14 nM.

Turning to `Cc1nc2ncc(-c3ccn4nc(N[C@@H]5CCN(C)C[C@@H]5F)ncc34)cc2n1CC(F)F` [Compound 1884, 5-(1-(2,2-Difluoroethyl)-2-methyl-1H-imidazo[4,5-b]pyridin-6-yl)-N-((3S,4R)-3-fluoro-1-methylpiperidin-4-yl)pyrrolo[2,1-f][1,2,4]triazin-2-amine], the EC50 was 7 nM.

With `Cc1nc2ncc(-c3ccn4nc(NCC(C)(C)F)ncc34)cc2n1CC(F)F` [Compound 642, 5-(1-(2,2-difluoroethyl)-2-methyl-1H-imidazo[4,5-b]pyridin-6-yl)-N-(2-fluoro-2-methylpropyl)pyrrolo[2,1-f][1,2,4]triazin-2-amine], the EC50 was found to be 4 nM.

Turning to `Cc1nc2ccc(-c3ccn4nc(NC5CCN(C(=O)C6CCC(F)(F)CC6)CC5)ncc34)nc2n1CC(F)F` [Compound 1953, (4,4-difluorocyclohexyl)(4-((5-(3-(2,2-difluoroethyl)-2-methyl-3H-imidazo[4,5-b]pyridin-5-yl)pyrrolo[2,1-f][1,2,4]triazin-2-yl)amino)piperidin-1-yl)methanone], the EC50 is 7 nM.

(Values after patent US20230312605A1, “PYRROLO[2,1-F][1,2,4]TRIAZINES AND PREPARATION AND USES THEREOF” (BioSplice Therapeutics, Inc., priority 2021, published 2023).)
